Converted amounts (≈) assume the structure as drawn.
How the values were obtained:
Assay type in all cases: cell-based
[1] = tested on: Mannheimia haemolytica MH 12587 (1071, BRD field isolate, macrolide-resistance: erm+, E+); test: MIC, broth-microdilution (CLSI VET01-A4), strain MH 12587; details: Mannheimia haemolytica strain MH 12587, broth-microdilution; unit assumed
Summary of the method: (§1)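 Test articles are arrayed as a twofold dilution range in microdilution trays. Wells are scored by naked eye, and the MIC is taken where turbidity first disappears.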

[2] = tested on: Mannheimia haemolytica MH 10720 (154, BRD field isolate); test: MIC, broth-microdilution (CLSI VET01-A4), strain MH 10720; details: Mannheimia haemolytica strain MH 10720, broth-microdilution; unit assumed
Summary of the method: as §1

[3] = tested on: Pasteurella multocida PM 12080 (IV102277-0093, BRD field isolate); test: MIC, broth-microdilution (CLSI VET01-A4), strain PM 12080; details: Pasteurella multocida strain PM 12080, broth-microdilution; unit assumed
Summary of the method: as §1

[4] = tested on: Pasteurella multocida PM 6267 (P 2225 (L386), reference strain, mouse infection strain); test: MIC, broth-microdilution (CLSI VET01-A4), strain PM 6267; details: Pasteurella multocida strain PM 6267, broth-microdilution; unit assumed
Summary of the method: as §1

[5] = tested on: Mannheimia haemolytica MH 6374 (ATCC 33396, reference strain); test: MIC, broth-microdilution (CLSI VET01-A4), strain MH 6374; details: Mannheimia haemolytica strain MH 6374, broth-microdilution; unit assumed
Summary of the method: as §1

[6] = tested on: Pasteurella multocida PM 6391 (ATCC 43137, reference strain); test: MIC, broth-microdilution (CLSI VET01-A4), strain PM 6391; details: Pasteurella multocida strain PM 6391, broth-microdilution; unit assumed
Summary of the method: as §1

[7] = tested on: Pasteurella multocida PM 10775 (080130003051, BRD field isolate); test: MIC, broth-microdilution (CLSI VET01-A4), strain PM 10775; details: Pasteurella multocida strain PM 10775, broth-microdilution; unit assumed
Summary of the method: as §1

[8] = tested on: Mannheimia haemolytica MH 6357 (M7/2, reference strain, cattle infection strain); test: MIC, broth-microdilution (CLSI VET01-A4), strain MH 6357; details: Mannheimia haemolytica strain MH 6357, broth-microdilution; unit assumed
Summary of the method: as §1

[9] = tested on: Mannheimia haemolytica MH 13093 (XB0472-6014.1, BRD field isolate); test: MIC, broth-microdilution (CLSI VET01-A4), strain MH 13093; details: Mannheimia haemolytica strain MH 13093, broth-microdilution; unit assumed
Summary of the method: as §1

[10] = tested on: Mannheimia haemolytica MH 13065 (XB0446-6003.9, BRD field isolate); test: MIC, broth-microdilution (CLSI VET01-A4), strain MH 13065; details: Mannheimia haemolytica strain MH 13065, broth-microdilution; unit assumed
Summary of the method: as §1

Row | MIC PM 12080 [3] [µg/mL] | MIC PM 6267 [4] [µg/mL] | MIC PM 6391 [6] [µg/mL] | MIC PM 10775 [7] [µg/mL] | Compound | MIC MH 12587 [1] [µg/mL] | MIC MH 10720 [2] [µg/mL] | MIC MH 6374 [5] [µg/mL] | MIC MH 6357 [8] [µg/mL] | MIC MH 13093 [9] [µg/mL] | MIC MH 13065 [10] [µg/mL]
1 | ≤ 0.1 | ≤ 0.1 | 0.2 (≈ 0.468 µM) | ≤ 0.1 | CC(C)(O)[C@H](NC(=O)c1ccc(C#Cc2ccc(CNC3CC3)s2)cc1)C(=O)NO [Compound 290] | 0.4 (≈ 0.936 µM) | ≤ 0.1 | ≤ 0.1 | ≤ 0.1 | 0.2 (≈ 0.468 µM) | ≤ 0.1
2 | ≤ 0.1 | 0.8 (≈ 1.87 µM) | 0.4 (≈ 0.936 µM) | ≤ 0.1 | C=CCNCc1ccc(C#Cc2ccc(C(=O)N[C@H](C(=O)NO)C(C)(C)O)cc2)s1 [Compound 291] | 0.8 (≈ 1.87 µM) | ≤ 0.1 | ≤ 0.1 | ≤ 0.1 | 0.4 (≈ 0.936 µM) | 0.4 (≈ 0.936 µM)
3 | ≤ 0.1 | 1.6 (≈ 3.5 µM) | 0.2 (≈ 0.437 µM) | ≤ 0.1 | CC(C)(O)[C@H](NC(=O)c1ccc(C#Cc2ccc(CN3CCOCC3)s2)cc1)C(=O)NO [Compound 293] | 0.8 (≈ 1.75 µM) | ≤ 0.1 | 0.8 (≈ 1.75 µM) | 0.4 (≈ 0.874 µM) | 0.8 (≈ 1.75 µM) | 0.4 (≈ 0.874 µM)
4 | ≤ 0.1 | 0.8 (≈ 1.68 µM) | 0.2 (≈ 0.419 µM) | ≤ 0.1 | CC(C)(O)[C@H](NC(=O)c1ccc(C#Cc2ccc(CNCc3ccccc3)s2)cc1)C(=O)NO [Compound 294] | 0.4 (≈ 0.838 µM) | ≤ 0.1 | 0.2 (≈ 0.419 µM) | ≤ 0.1 | 0.4 (≈ 0.838 µM) | ≤ 0.1

Second part, the compound before the results:

Row | Compound | MIC PM 12080 [3] [µg/mL] | MIC PM 6267 [4] [µg/mL] | MIC PM 6391 [6] [µg/mL] | MIC PM 10775 [7] [µg/mL] | MIC MH 12587 [1] [µg/mL] | MIC MH 10720 [2] [µg/mL] | MIC MH 6374 [5] [µg/mL] | MIC MH 6357 [8] [µg/mL] | MIC MH 13093 [9] [µg/mL] | MIC MH 13065 [10] [µg/mL]
5 | COCCCNCc1ccc(C#Cc2ccc(C(=O)NC(C(=O)NO)C(C)(C)[N+](=O)[O-])cc2)cc1 (stereo not shown) [Compound 285] | 0.8 (≈ 1.66 µM) | 3.1 (≈ 6.42 µM) | 1.6 (≈ 3.32 µM) | ≤ 0.1 | 6.3 (≈ 13.1 µM) | ≤ 0.1 | 3.1 (≈ 6.42 µM) | 1.6 (≈ 3.32 µM) | 3.1 (≈ 6.42 µM) | 1.6 (≈ 3.32 µM)
6 | CC(C)(C(NC(=O)c1ccc(C#Cc2ccc(CNCc3cccnc3)cc2)cc1)C(=O)NO)[N+](=O)[O-] (stereo not shown) [Compound 286] | ≤ 0.1 | 0.8 (≈ 1.6 µM) | 0.8 (≈ 1.6 µM) | ≤ 0.1 | 1.6 (≈ 3.19 µM) | ≤ 0.1 | 0.8 (≈ 1.6 µM) | 0.4 (≈ 0.798 µM) | 0.8 (≈ 1.6 µM) | 0.4 (≈ 0.798 µM)
7 | CC(C)(C(NC(=O)c1ccc(C#Cc2ccc(CNCc3ccco3)cc2)cc1)C(=O)NO)[N+](=O)[O-] (stereo not shown) [Compound 287] | ≤ 0.1 | 0.8 (≈ 1.63 µM) | 0.4 (≈ 0.815 µM) | ≤ 0.1 | 1.6 (≈ 3.26 µM) | ≤ 0.1 | 0.8 (≈ 1.63 µM) | 0.4 (≈ 0.815 µM) | 0.8 (≈ 1.63 µM) | 0.8 (≈ 1.63 µM)
8 | CC(C)(C(NC(=O)c1ccc(C#Cc2ccc(CNCC(F)(F)F)cc2)cc1)C(=O)NO)[N+](=O)[O-] (stereo not shown) [Compound 288] | ≤ 0.1 | 0.4 (≈ 0.812 µM) | ≤ 0.1 | ≤ 0.1 | 0.8 (≈ 1.62 µM) | ≤ 0.1 | 0.8 (≈ 1.62 µM) | 0.4 (≈ 0.812 µM) | 0.8 (≈ 1.62 µM) | 0.4 (≈ 0.812 µM)
9 | CC(C)(C(NC(=O)c1ccc(C#Cc2ccc(CNCc3cccs3)cc2)cc1)C(=O)NO)[N+](=O)[O-] (stereo not shown) [Compound 289] | ≤ 0.1 | 0.8 (≈ 1.58 µM) | 0.4 (≈ 0.79 µM) | 0.4 (≈ 0.79 µM) | 1.6 (≈ 3.16 µM) | ≤ 0.1 | 0.8 (≈ 1.58 µM) | 0.4 (≈ 0.79 µM) | 0.8 (≈ 1.58 µM) | 0.8 (≈ 1.58 µM)
10 | COc1ccc(CNCc2ccc(C#Cc3ccc(C(=O)N[C@H](C(=O)NO)C(C)(C)O)cc3)s2)cc1 [Compound 295] | ≤ 0.1 | 0.8 (≈ 1.58 µM) | 0.4 (≈ 0.788 µM) | ≤ 0.1 | 0.8 (≈ 1.58 µM) | ≤ 0.1 | 0.4 (≈ 0.788 µM) | ≤ 0.1 | 0.4 (≈ 0.788 µM) | 0.2 (≈ 0.394 µM)

— US11034650B2, “Compounds useful for treating a Mannheimia haemolytica or Histophilus somni infection” (Intervet Inc., priority 2016, dated 2021)
